Data published in article PMC6835155, “Lessons from LIMK1 enzymology and their impact on inhibitor design” (Biochemical Journal, 2019).
Counter-ions that a name gives are not always drawn. Like-named read-outs stand apart in the source and are kept apart here.

Tests used:
[1] = biological target: T1, LIMK1KD (Homo sapiens, UniProt P53667); test: Differential (dynamic) scanning fluorimetry (DSF) assay, LIMK1KD; type: binding; conditions: for ΔTm at 10 µM: read-out: TM Shift LIMK1 (K)
T1 construct: His6 (N, cleaved yes); made in house; host or cells: baculovirus; Sf9 for virus, TriEx insect cells for expression

[2] = biological target: T2, LIMK2KD (Homo sapiens, UniProt P53671); test: Differential (dynamic) scanning fluorimetry (DSF) assay, LIMK2KD; type: binding
T2 construct: The cDNA coding for LIMK2 residues 330 to 632 was PCR amplified; His6 (N, cleaved yes); made in house; host or cells: baculovirus; Sf9 for virus, TriEx insect cells for expression

[3] = 2 µM LIMK1KD, compound 10 µM, single shot
[4] = LIMK2KD, compound 10 µM, single shot
[5] = LIMK2KD, compound 10 µM, single shot, read-out: TM Shift LIMK2 (K)
[6] = read-out: TM Shift LIMK2 (K), LIMK2KD, compound 10 µM, single shot
[7] = LIMK2KD, compound 10 µM, single shot, 10 µM

T1 sequence (P53667 330-637): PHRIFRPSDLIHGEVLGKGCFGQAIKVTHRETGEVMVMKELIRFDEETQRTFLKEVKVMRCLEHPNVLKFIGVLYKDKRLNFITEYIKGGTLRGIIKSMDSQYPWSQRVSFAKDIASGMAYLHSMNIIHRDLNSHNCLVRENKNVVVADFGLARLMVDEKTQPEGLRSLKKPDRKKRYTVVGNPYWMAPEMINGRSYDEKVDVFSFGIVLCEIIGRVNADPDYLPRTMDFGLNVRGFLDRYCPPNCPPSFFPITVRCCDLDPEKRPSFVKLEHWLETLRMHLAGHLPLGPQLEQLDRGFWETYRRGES
T2 sequence (P53671 330-632): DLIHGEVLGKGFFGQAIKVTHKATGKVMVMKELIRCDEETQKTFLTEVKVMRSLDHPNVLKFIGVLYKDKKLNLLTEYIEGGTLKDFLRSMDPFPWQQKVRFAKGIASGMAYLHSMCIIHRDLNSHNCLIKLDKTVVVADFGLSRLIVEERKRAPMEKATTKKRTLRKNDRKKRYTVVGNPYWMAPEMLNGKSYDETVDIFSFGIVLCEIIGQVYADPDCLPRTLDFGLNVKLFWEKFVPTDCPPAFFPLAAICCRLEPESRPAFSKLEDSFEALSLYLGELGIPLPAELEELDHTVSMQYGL

| SMILES | TM Shift LIMK1 (K) [1, 3] | TM Shift LIMK2 (K) [2, 4] | ΔTm at 10 µM [1, 3] | ΔTm at 10 µM [2, 5] | other results |
| --- | --- | --- | --- | --- | --- |
| Cn1cc(-c2cnn3c(N)c(Br)c([C@@H]4CCCNC4)nc23)cn1 [MK-8776 (SCH 900776)] |  |  |  |  | ΔTm at 10 µM [1]: 1.8 °C; ΔTm at 10 µM ([2]; read-out: TM Shift LIMK2 (K)): 2.2 °C |
| C=CC(=O)Nc1ccc2ncnc(Nc3cccc(Br)c3)c2c1 [PD168393] | 0.4 K | 2.0 K |  |  |  |
| Nc1ccc(-c2ccc3ncc4ccc(=O)n(-c5cccc(C(F)(F)F)c5)c4c3c2)cn1 [Torin 2] | -1.1 K | -0.7 K |  |  |  |
| CN1CCN(c2ccc3nc(-c4c(N)c5c(F)cccc5[nH]c4=O)[nH]c3c2)CC1 [Dovitinib (TKI-258) Dilactic Acid, Dovitinib] |  |  | 2.2 °C | 3.8 °C |  |
| O=C(NC(NC(=S)Nc1ccc(F)c([N+](=O)[O-])c1)C(Cl)(Cl)Cl)C(c1ccccc1)c1ccccc1 (stereo not drawn) [CGK 733] | 0.7 K | 4.2 K |  |  |  |
| Cc1c(Cn2c(C)nc3c(C(=O)O)cc(N4CCOCC4)cc32)cccc1C(F)(F)F [GSK2636771] |  |  | 0.1 °C | 2 °C |  |
| Cc1nc(Nc2ncc(C(=O)Nc3c(C)cccc3Cl)s2)cc(N2CCN(CCO)CC2)n1 [Dasatinib] |  |  | 7 °C |  | ΔTm at 10 µM [2, 6]: 1.7 °C |
| O=C1NCCc2[nH]c(-c3ccncc3)cc21 [PHA-767491] | 1.2 K | 0.4 K |  |  |  |
| COC[C@H]1OC(=O)c2coc3c2[C@@]1(C)C1=C(C3=O)[C@@H]2CCC(=O)[C@@]2(C)C[C@H]1OC(C)=O [Wortmannin] |  |  | 0.2 °C | 0.1 °C |  |
| COc1cc(O)c2c(c1)/C=C/C[C@H](O)[C@H](O)C(=O)/C=C\C[C@H](C)OC2=O [(5Z)-7-Oxozeaenol] | 2.8 K | 0.7 K |  |  |  |
| O=C(Nc1ccc2[nH]nc(-c3ccncc3)c2c1)[C@@H]1CCN(CC(=O)N2CCN(c3ccc(-c4ncccn4)cc3)CC2)C1 [SCH772984] |  |  | 0.3 °C | 0.1 °C |  |
| NC(=O)c1cccc(-c2cc(Nc3ccc(OC(F)(F)F)cc3)ncn2)c1 [GNF-2] | -1.0 K | 0.9 K |  |  |  |
| COc1cc(OC2CCN(C)CC2)ccc1Nc1ncc2c(n1)n(C1CCCC1)c(=O)n2C [AZ3146] |  |  | 0.4 °C | 0 °C |  |
| CN(C[C@@H]1COCCO1)S(=O)(=O)Nc1ccc2ccc3ncc(-c4cnn(C)c4)cc3c(=O)c2c1 [MK-2461] |  |  | 0.8 °C | 0.3 °C |  |
| Cc1nc(N)sc1-c1ccnc(Nc2ccc(N3CCOCC3)cc2)n1 [CYC116] |  |  | 3.7 °C | 1.6 °C |  |
| Cc1cc(Nc2cc(N3CCN(C)CC3)nc(/C=C/c3ccccc3)n2)n[nH]1 [ENMD-2076] |  |  | 4.6 °C | 6 °C |  |
| Cn1cc(-c2ccc3ncc(Cc4ccc5ncccc5c4)n3n2)cn1 [NVP-BVU972] | -0.5 K | 2.9 K |  |  |  |
| Nc1nc(N)c(N=O)c(OCC2CCCCC2)n1 [NU6027] |  |  | 0.8 °C | -0.9 °C |  |
| Cc1cc(C(=O)NOCCO)c(Nc2ccc(I)cc2F)n(C)c1=O [AZD8330] |  |  | 0.3 °C | 0.2 °C |  |

| SMILES | TM Shift LIMK1 (K) [1, 3] | TM Shift LIMK2 (K) [2, 4] | ΔTm at 10 µM [1, 3] | ΔTm at 10 µM [2, 5] | other results |
| --- | --- | --- | --- | --- | --- |
| C[C@H](NC(=O)/C(C#N)=C/c1cccc(Br)n1)c1ccccc1 [WP1066] |  |  | -0.3 °C | 0.4 °C |  |
| N#CC[C@H](C1CCCC1)n1cc(-c2ncnc3[nH]ccc23)cn1 [Ruxolitinib (INCB018424), Ruxolitinib] |  |  | 1.6 °C | 2.6 °C |  |
| N#Cc1ccc2[nH]c(O)c(-c3ccc(CN4CCOCC4)cn3)c2c1 [AZD1080] |  |  | 0.5 °C | 2.3 °C |  |
| CNC(=O)c1ccccc1Nc1nc(Nc2ccc(N3CCOCC3)cc2OC)ncc1Cl [TAE226 (NVP-TAE226)] | 1.1 K | 3.3 K |  |  |  |
| CO[C@H]1C[C@@H]2CC[C@@H](C)[C@@](O)(O2)C(=O)C(=O)N2CCCC[C@H]2C(=O)O[C@H]([C@H](C)C[C@@H]2CC[C@@H](O)[C@H](OC)C2)CC(=O)[C@H](C)/C=C(\C)[C@@H](O)[C@@H](OC)C(=O)[C@H](C)C[C@H](C)/C=C/C=C/C=C/1C [Rapamycin (Sirolimus), Rapamycin] |  |  | -0.1 °C | 0 °C |  |
| CN1CCN(CCOc2cc(OC3CCOCC3)c3c(Nc4c(Cl)ccc5c4OCO5)ncnc3c2)CC1 [Saracatinib (AZD0530), Saracatinib] |  |  | 1.2 °C | 0.8 °C |  |
| CCn1c(-c2nonc2N)nc2cnc(Oc3cccc(NC(=O)c4ccc(OCCN5CCOCC5)cc4)c3)cc21 [GSK269962] | 1.0 K | 0.1 K |  |  |  |
| COc1cccc2cc(-c3nc([C@H]4CC[C@H](C(=O)O)CC4)n4ncnc(N)c34)[nH]c12 [OSI-027] |  |  | 2.2 °C | 0.2 °C |  |
| N#CC[C@@H](C1CCCC1)n1cc(-c2ncnc3[nH]ccc23)cn1 [S-Ruxolitinib (INCB018424), S-Ruxolitinib] |  |  | 0.9 °C | -0.7 °C |  |
| Cc1cc(O)c2c(c1)C(=O)c1cccc(O)c1C2=O [Chrysophanic Acid] |  |  | 0.9 °C | 1.3 °C |  |
| FC(F)c1nc2ccccc2n1-c1nc(N2CCOCC2)nc(N2CCOCC2)n1 [ZSTK474] |  |  | -1 °C | 0 °C |  |
| COc1ccc(-c2nc(N3CCOCC3)c3sc(CN(C)c4ncc(C(=O)NO)cn4)cc3n2)cn1 [CUDC-907] |  |  | 0.3 °C | -0.1 °C |  |
| C[C@@H]1COC(Nc2ccc3ncnc(Nc4ccc(OCc5nccs5)c(Cl)c4)c3c2)=N1 [Varlitinib] |  |  | 0.9 °C | 0.8 °C |  |
| Nc1ccc(C(=O)Nc2cccc(-c3nc(N4CCOCC4)c4oc5ncccc5c4n3)c2)cn1 [YM201636] | 0.6 K | 3.8 K |  |  |  |
| O=c1cc(-c2cccc3c2Sc2ccccc2S3)oc(N2CCOCC2)c1 [KU-55933 (ATM Kinase Inhibitor)] |  |  | -0.2 °C | -0.1 °C |  |
| CC(C)CC(=O)Nc1[nH]nc2c1CN(C(=O)C1CCN(C)CC1)C2(C)C [PHA-793887] |  |  | 1 °C | 4.1 °C |  |
| Cc1cc(C)nc(NS(=O)(=O)c2ccc(NC(=S)NC(=O)COc3ccc(Br)cc3Cl)cc2)n1 [ZCL278] | -1.0 K | 1.2 K |  |  |  |
| Cc1ccc2nc(NCCN)c3ncc(C)n3c2c1 [BMS-345541] |  |  | 0.4 °C | 2.8 °C |  |
| C=CCN(/C=C1/C(=O)O[C@H](COC)[C@@]2(C)C1=C(O)C(=O)C1=C2[C@H](OC(C)=O)C[C@]2(C)C(=O)CC[C@@H]12)CC=C [Sonolisib] |  |  | 0.7 °C | 0.6 °C |  |

| SMILES | TM Shift LIMK1 (K) [1, 3] | TM Shift LIMK2 (K) [2, 4] | ΔTm at 10 µM [1, 3] | ΔTm at 10 µM [2, 5] | other results |
| --- | --- | --- | --- | --- | --- |
| COc1cc2ncnc(Nc3ccc(F)c(Cl)c3)c2cc1OCCCN1CCOCC1 [Gefitinib (ZD1839), Gefitinib] |  |  | -0.6 °C |  | ΔTm at 10 µM [2, 6]: 0.5 °C |
| CCn1c(N)c(C(=O)NC)c(=O)c2ccc(C#C[C@@](C)(O)COC)nc21 [SAR131675] | 0.1 K | 2.9 K |  |  |  |
| CNC(=O)c1cc(Oc2ccc(NC(=O)Nc3ccc(Cl)c(C(F)(F)F)c3)cc2)ccn1 [Sorafenib Tosylate] | 1.7 K |  |  |  | ΔTm at 10 µM [2, 6]: 1.5 °C |
| CC(C)(C)NS(=O)(=O)c1cncc(-c2cc(F)c3nc(N)nn3c2)c1 [CZC24832] |  |  | -0.4 °C | -0.1 °C |  |
| CS(=O)(=O)N1CCN(Cc2cc3nc(-c4cccc5[nH]ncc45)nc(N4CCOCC4)c3s2)CC1 [GDC-0941] | -0.3 K |  |  |  | TM Shift LIMK2 (K) [2, 7]: -0.4 K |
| Nc1cc(C(F)(F)F)c(-c2cc(N3CCOCC3)nc(N3CCOCC3)n2)cn1 [Buparlisib] | 0.6 K |  |  |  | TM Shift LIMK1 (K) ([1]; 2 µM LIMK1KD, compound 10 µM, single shot, listed as BKM120 (NVP-BKM120, Buparlisib)): -1.9 K; TM Shift LIMK2 (K) [2, 7]: 0.0 K; TM Shift LIMK2 (K) ([2]; LIMK2KD, compound 10 µM, single shot, listed as BKM120 (NVP-BKM120, Buparlisib), 10 µM): 0.7 K |
| Oc1ccc2ccccc2c1SSc1c(O)ccc2ccccc12 [IPA-3] | 0.0 K | 1.2 K |  |  |  |
| CCN(CC)CCNC(=O)c1c(C)[nH]c(/C=C2\C(=O)Nc3ccc(F)cc32)c1C [Sunitinib] |  |  | 1.8 °C |  | TM Shift LIMK2 (K) [2, 7]: -0.1 K |
| CCN1CCN(Cc2ccc(Nc3ncc(F)c(-c4cc(F)c5nc(C)n(C(C)C)c5c4)n3)nc2)CC1 [LY2835219] |  |  | 0.9 °C | 0.3 °C |  |
| COc1ccc(C(=O)Nc2sc3c(c2C(N)=O)CCCC3)cc1OC [TCS 359] | 1.3 K | 1.1 K |  |  |  |
| N#CCNC(=O)c1ccc(-c2ccnc(Nc3ccc(N4CCOCC4)cc3)n2)cc1 [CYT387] | 1.2 K |  |  |  | TM Shift LIMK2 (K) [2, 7]: 0.8 K |
| CNC(=O)c1ccccc1Sc1ccc2c(/C=C/c3ccccn3)n[nH]c2c1 [Axitinib] |  |  | 2 °C | -0.7 °C |  |
| Cc1ccccc1CN1C(=O)C2=C(CCN(Cc3ccccc3)C2)N2CCN=C12 [TIC10] | 0.5 K | -1.2 K |  |  |  |
| CNC(=O)c1cccc(-c2ccc3c(N4CCOC[C@@H]4C)nc(N4CCOC[C@@H]4C)nc3n2)c1 [AZD2014] |  |  | 0.2 °C | -0.3 °C |  |
| Cc1ccc(NC(=O)c2cccc(C(C)(C)C#N)c2)cc1Nc1ccc2ncn(C)c(=O)c2c1 [AZ 628] | 0.3 K | 1.2 K |  |  |  |
| Cc1[nH]c(/C=C2\C(=O)Nc3ccc(S(=O)(=O)Cc4c(Cl)cccc4Cl)cc32)c(C)c1C(=O)N1CCC[C@@H]1CN1CCCC1 [PHA-665752] |  |  | 1.3 °C | -0.4 °C |  |
| N#Cc1c(Oc2ccc(F)c(NC(=O)Cc3cccc(C(F)(F)F)c3)c2)ccc2nc(NC(=O)C3CC3)sc12 [TAK-632] | 1.3 K | 3.2 K |  |  |  |
| OCCn1cc(-c2cnc3nnn(Cc4ccc5ncccc5c4)c3n2)cn1 [PF-04217903] | 0.3 K | -0.1 K |  |  |  |
